Measurements as given in patent US20230287336A1, “METHOD FOR IMPROVING FLAVONOID PHENYLPROPANOID COMPOUNDS IN SAUSSUREA INVOLUCRATA CELL CULTURE” (DALIAN PRACTICAL BIOTECHNOLOGY CO, .LTD, priority 2019, published 2023).
Read-outs that look alike come from different tables or passages of the source.

What was measured:
Type in all cases: cell-based
[1] = tested on: Saussurea involucrata cell culture; assay: Content of total flavonoids in cultured cells, measured with a spectrophotometer (rutin standard curve)
Description: (2) Method for Determining Total Flavonoids of Saussurea involucrata:
Preparation of control solution: 10 mg of rutin control substance dried to a constant weight at 120° C. was precisely weighed and placed in a 50 mL volumetric flask, an appropriate amount of methanol was added, the mixture was heated in water bath to dissolve the rutin control substance and cooled down, methanol was added to the graduation line, and the mixture was shaken well. Then a control solution was obtained (0.2 mg of anhydrous rutin was contained in 1 mL of control solution);
Preparation of a standard curve: 1 mL, 2 mL, 3 mL, 4 mL, 5 mL and 6 mL of control solutions were precisely weighed and placed in 25 mL volumetric flasks respectively, water was added to 6 mL in each volumetric flask, 1 mL of 5% sodium nitrite solution was added, and the flasks were shaken well and placed for 6 min; 1 mL of 10% aluminum nitrate was added, and the flasks were shaken well and placed for 6 min; 10 mL of sodium hydroxide test solution was added, water was added to the graduation line, and the flasks were shaken well and placed for 15 min; a corresponding reagent was used as a blank, an absorbance was determined at 500 nm, and a standard curve was plotted with the absorbance as a longitudinal coordinate and a concentration as a horizontal coordinate;
Determination: About 0.10 g of coarse powder of this product was taken, precisely weighed and placed in a Soxhlet extractor, about 90 mL of methanol was added, the mixture was heated to reflux until an extracting solution became colorless (the number of reflux times for each sample should not be less than 4 and 2 hours) and transferred into a 50 mL volumetric flask, methanol was added to the graduation line, and the flask was shaken well.

[2] = tested on: Saussurea involucrata cell culture; assay: Dry cell weight / yield of dried cultures after culturing
Description: (1) Measurement of Dry Cell Weight Cell culture solution was poured into a 120-mesh stainless steel mesh and filtered to harvest cells, the cells were washed with distilled water 3 times, moisture on the surface of the cells was fully absorbed with absorbent paper, a fresh weight was measured, […]

[3] = tested on: Saussurea involucrata cell culture; assay: Contents of rutin, chlorogenic acid, syringin and 1,5-dicaffeoylquinic acid in cultured cells by HPLC
Description: (3) Content Determination of Phenylpropanoids
Cultured Saussurea involucrata cells dried to a constant weight were taken and ground to fine powder; about […] of fine powder was precisely weighed, placed in a test tube with a stopper and extracted ultrasonically with 50 mL of 20% methanol for 1 h; a weight loss was supplemented with methanol, the mixture was centrifuged at 15,000 r/min for 20 min, a supernatant was taken and filtered through a 0.45 μm filter membrane, and the contents of rutin, chlorogenic acid, syringin and 1,5-dicaffeoylquinic acid were determined simultaneously through HPLC. Shiseido capcell pak C18 MGII chromatographic column (4.6 mm×250 mm, 5 μm);
A mobile phase A was 0.2% of […] (containing 50 mmo/L KH2PO4), a mobile phase B was acetonitrile, and gradient elution was performed. Gradient conditions: 0 min (VA:VB=92:8)-20 min (VA:VB=90:10)-50 min (VA:VB=70:30)-60 min (VA:VB=50:50); flow velocity 1.0 mL/min^−1; column temperature 30° C.; detection wavelength 265 nm (syringin); sample size 20 μL.

[4] = harvested suspension culture, medium, additive, time of addition and culturing time as in each example
[5] = cells dried at 50° C. for 24 h, additive and culture conditions as in each example

Row | Molecule | content of total flavonoids in the cells [1, 4] | weight of cultures after being dried (yield of dry products) [2, 5] | content of 1,5-dicaffeoylquinic acid in the cells [3, 4] | content of chlorogenic acid in the cells [3, 4] | content of rutin in the cells [3, 4] | content of syringin in the cells [3, 4] | content of total flavonoids in the cells [1] | weight of cultures after being dried (yield of dry products) [2] | content of 1,5-dicaffeoylquinic acid in the cells [3] | content of chlorogenic acid in the cells [3] | content of rutin in the cells [3] | content of syringin in the cells [3]
1 | N[C@@H](Cc1ccccc1)C(=O)O [phenylalanine] | more than 22.7 % of the cells (dry weight) | 15 g/L | more than 2.48% | more than 1.28% | more than 0.078% | more than 2.07% | – | – | – | – | – | –
2 | silver nitrate | – | 16 g/L | more than 2.97% | more than 1.47% | more than 0.065% | more than 1.38% | – | – | – | – | – | –
3 | CC(=O)[O-].[Na+] [sodium acetate] | – | – | – | – | – | – | more than 21.8 % of the cells (dry weight) | 15 g/L | more than 2.35% | more than 1.79% | more than 0.064% | more than 1.22%
4 | O=C(O)C=Cc1ccccc1 [cinnamic acid] | more than 22 % of the cells (dry weight) | 15 g/L | more than 2.81% | more than 1.66% | more than 0.066% | more than 1.45% | – | – | – | – | – | –
5 | O=C(O)C(=O)O [oxalic acid] | more than 19.6 % of the cells (dry weight) | 16 g/L | more than 1.72% | more than 1.27% | more than 0.071% | more than 0.95% | – | – | – | – | – | –
6 | O=C(O)c1ccccc1O [salicylic acid] | more than 21.2 % of the cells (dry weight) | 16.8 g/L | more than 3.55% | more than 1.86% | more than 0.072% | more than 1.09% | – | – | – | – | – | –
7 | CC/C=C\CC1C(=O)CCC1CC(=O)OC (centres unmarked) [methyl jasmonate] | more than 24.1 % of the cells (dry weight) | 20.4 g/L | more than 4.12% | more than 2.44% | more than 0.081% | more than 1.89% | – | – | – | – | – | –
8 | N[C@@H](Cc1ccc(O)cc1)C(=O)O [tyrosine] | more than 19.4 % of the cells (dry weight) | 18.2 g/L | more than 2.75% | more than 0.62% | more than 0.062% | more than 1.49% | – | – | – | – | – | –
